Values quoted from earlier work, collected in patent US20160051468A1, “Compositions for Prevention and/or Treatment of Gastrointestinal Imbalances in Digestive Disorders” (BRIGHT DRINKS INC., priority 2013, published 2016).

Columns and labels:
[1] = tested on: TNFα; conditions: LPS-stimulated macrophage cell line; dose-response fashion
[2] = tested on: DNA; conditions: hydroxyl radical attack, in vitro
[3] = in vitro, compared with other tea catechins
[4] = tested on: NF-κB; conditions: human IEC lines; by inhibiting I-κB kinase activity
[5] = tested on: H. pylori
[6] = tested on: NF-κB; conditions: human colon carcinoma cell line

In the case of O=C(O[C@@H]1Cc2c(O)cc(O)cc2O[C@@H]1c1cc(O)c(O)c(O)c1)c1cc(O)c(O)c(O)c1 [EGCG, epigallocatechin gallate], the TNFα protein levels [1] is given as “significant decrease”, the “reduction of oxidative damage sustained by DNA” value [2] is given as “highly active” and the “scavenging of superoxide anion and hydroxyl radical” value [3] is given as “most effective of all catechins”. The NF-κB activation [4] was “blocking NF-κB activation”, the “minimum-inhibitory-concentration (MIC) for 90% of isolates” value ([5]; 110 mostly clinical isolates of H. pylori) was 32 μg per mL and the “concentration with bactericidal effect” value ([5]; H. pylori in vitro) was 4 times the MIC. For the same compound, the “concentration with bacteriostatic effect” value ([5]; H. pylori in vitro) was 2 times the MIC.
In the case of CCC(=O)O [Propionate], the “suppression of NF-κB reporter activity, relative potency” value [6] is given as “equipotent”.
For CC(=O)O [acetate], the “suppression of NF-κB reporter activity, relative potency” value [6] is given as “slightly less effective”.
